# How the values were obtained:
# [1] = system: Mus musculus; test: Compound was tested for mortality in P388 leukemia implanted BDF1 mice on day 0 after ip administration of 10 mg/kg/day on day 1-5 out of 5 mice; assay type: functional; conditions: route intraperitoneal
# [2] = system: Mus musculus; test: Compound was evaluated for %T/C in L1210 leukemia implanted BDF1 mice on day 0 after ip administration of 6.25 mg/kg/day on day 1-9; assay type: functional; conditions: route intraperitoneal
# [3] = system: Mus musculus; test: Compound was tested for mortality in L1210 leukemia implanted BDF1 mice on day 0 after ip administration of 10 mg/kg/day on day 1 out of 5 mice; assay type: functional; conditions: route intraperitoneal
# [4] = system: Mus musculus; test: Compound was evaluated for %T/C in P388 leukemia implanted BDF1 mice on day 0 after ip administration of 25 mg/kg/day on day 1-5; assay type: functional; conditions: route intraperitoneal
# [5] = system: Mus musculus; test: Compound was evaluated for %T/C in L1210 leukemia implanted BDF1 mice on day 0 after ip administration of 20 mg/kg/day on day 1; assay type: functional; conditions: route intraperitoneal
# [6] = system: Mus musculus; test: Compound was evaluated for %T/C in L1210 leukemia implanted BDF1 mice on day 0 after ip administration of 2.5 mg/kg/day on day 1-5; assay type: functional; conditions: route intraperitoneal
# [7] = system: Mus musculus; test: (§1) Compound was evaluated for number of survivors in P388 leukemia implanted BDF1 mice on day 0 after ip administration of 20 mg/kg/day on day 60 out of 5 mice; assay type: functional; conditions: route intraperitoneal
# [8] = system: Mus musculus; test: Compound was evaluated for number of survivors in L1210 leukemia implanted BDF1 mice on day 0 after ip administration of 2.5 mg/kg/day on day 60 out of 5 mice; assay type: functional; conditions: route intraperitoneal
# [9] = system: Mus musculus; test: Compound was evaluated for %T/C in P388 leukemia implanted BDF1 mice on day 0 after ip administration of 80 mg/kg/day on day 1; assay type: functional; conditions: route intraperitoneal
# [10] = system: Mus musculus; test: Compound was evaluated for %T/C in L1210 leukemia implanted BDF1 mice on day 0 after ip administration of 5 mg/kg/day on day 1-5; assay type: functional; conditions: route intraperitoneal
# [11] = system: Mus musculus; test: Compound was tested for mortality in L1210 leukemia implanted BDF1 mice on day 0 after ip administration of 5 mg/kg/day on day 1-5 out of 5 mice; assay type: functional; conditions: route intraperitoneal
# [12] = system: Mus musculus; test: Compound was evaluated for number of survivors in P388 leukemia implanted BDF1 mice on day 0 after ip administration of 7.5 mg/kg/day on day 60 out of 5 mice; assay type: functional; conditions: route intraperitoneal
# [13] = system: Mus musculus; test: Compound was tested for mortality in P388 leukemia implanted BDF1 mice on day 0 after ip administration of 5 mg/kg/day on day 1 out of 5 mice; assay type: functional; conditions: route intraperitoneal
# [14] = Half-life period in 95% ethanol in diffuse laboratory light at 28 degrees celsius.; assay type: ADME
# [15] = system: Mus musculus; test: Compound was evaluated for number of survivors in L1210 leukemia implanted BDF1 mice on day 0 after ip administration of 3.12 mg/kg/day on day 60 out of 6 mice; assay type: functional; conditions: route intraperitoneal
# [16] = system: Mus musculus; test: Compound was evaluated for %T/C in P388 leukemia implanted BDF1 mice on day 0 after ip administration of 40 mg/kg/day on day 1; assay type: functional; conditions: route intraperitoneal
# [17] = system: Mus musculus; test: Compound was tested for mortality in P388 leukemia implanted BDF1 mice on day 0 after ip administration of 5 mg/kg/day on day 1-5 out of 5 mice; assay type: functional; conditions: route intraperitoneal
# [18] = system: Mus musculus; test: Compound was evaluated for %T/C in L1210 leukemia implanted BDF1 mice on day 0 after ip administration of 5 mg/kg/day on day 1; assay type: functional; conditions: route intraperitoneal
# [19] = Half-life period in 95% ethanol in dark at 28 degrees celsius.; assay type: ADME
# [20] = system: Mus musculus; test: Compound was evaluated for number of survivors in P388 leukemia implanted BDF1 mice on day 0 after ip administration of 40 mg/kg/day on day 60 out of 5 mice; assay type: functional; conditions: route intraperitoneal
# [21] = system: Mus musculus; test: Compound was tested for mortality in L1210 leukemia implanted BDF1 mice on day 0 after ip administration of 20 mg/kg/day on day 1 out of 5 mice; assay type: functional; conditions: route intraperitoneal
# [22] = system: Mus musculus; test: as §1; assay type: functional; conditions: route intraperitoneal; remark: listed apart in the source
# [23] = system: Mus musculus; test: Compound was evaluated for %T/C in P388 leukemia implanted BDF1 mice on day 0 after ip administration of 5 mg/kg/day on day 1-5; assay type: functional; conditions: route intraperitoneal
# [24] = system: Mus musculus; test: Compound was evaluated for %T/C in L1210 leukemia implanted BDF1 mice on day 0 after ip administration of 40 mg/kg/day on day 1; assay type: functional; conditions: route intraperitoneal
# [25] = system: Mus musculus; test: Compound was evaluated for number of survivors in L1210 leukemia implanted BDF1 mice on day 0 after ip administration of 6.25 mg/kg/day on day 60 out of 6 mice; assay type: functional; conditions: route intraperitoneal
# [26] = system: Mus musculus; test: Compound was evaluated for %T/C in L1210 leukemia implanted BDF1 mice on day 0 after ip administration of 25 mg/kg/day on day 1-9; assay type: functional; conditions: route intraperitoneal
# [27] = system: Mus musculus; test: Compound was evaluated for number of survivors in L1210 leukemia implanted BDF1 mice on day 0 after ip administration of 12.5 mg/kg/day on day 60 out of 6 mice; assay type: functional; conditions: route intraperitoneal
# [28] = system: Mus musculus; test: Compound was tested for mortality in P388 leukemia implanted BDF1 mice on day 0 after ip administration of 25 mg/kg/day on day 1-5 out of 6 mice; assay type: functional; conditions: route intraperitoneal
# [29] = system: Mus musculus; test: Compound was evaluated for %T/C in L1210 leukemia implanted BDF1 mice on day 0 after ip administration of 10 mg/kg/day on day 1; assay type: functional; conditions: route intraperitoneal
# [30] = system: Mus musculus; test: Compound was evaluated for number of survivors in P388 leukemia implanted BDF1 mice on day 0 after ip administration of 6.25 mg/kg/day on day 60 out of 6 mice; assay type: functional; conditions: route intraperitoneal
# [31] = system: Mus musculus; test: Compound was tested for mortality in P388 leukemia implanted BDF1 mice on day 0 after ip administration of 20 mg/kg/day on day 1 out of 5 mice; assay type: functional; conditions: route intraperitoneal
# [32] = system: Mus musculus; test: Compound was evaluated for number of survivors in P388 leukemia implanted BDF1 mice on day 0 after ip administration of 12.5 mg/kg/day on day 60 out of 6 mice; assay type: functional; conditions: route intraperitoneal
# [33] = system: Mus musculus; test: Compound was tested for mortality in L1210 leukemia implanted BDF1 mice on day 0 after ip administration of 5 mg/kg/day on day 1 out of 5 mice; assay type: functional; conditions: route intraperitoneal
# [34] = system: Mus musculus; test: Compound was evaluated for %T/C in L1210 leukemia implanted BDF1 mice on day 0 after ip administration of 20 mg/kg/day on days 1-5; assay type: functional; conditions: route intraperitoneal
# [35] = system: Mus musculus; test: Compound was tested for mortality in P388 leukemia implanted BDF1 mice on day 0 after ip administration of 20 mg/kg/day on day 1-5 out of 5 mice; assay type: functional; conditions: route intraperitoneal
# [36] = system: Mus musculus; test: Compound was tested for mortality in P388 leukemia implanted BDF1 mice on day 0 after ip administration of 50 mg/kg/day on day 1-5 out of 6 mice; assay type: functional; conditions: route intraperitoneal
# [37] = system: Mus musculus; test: Compound was tested for mortality in P388 leukemia implanted BDF1 mice on day 0 after ip administration of 6.25 mg/kg/day on day 1-5 out of 6 mice; assay type: functional; conditions: route intraperitoneal
# [38] = system: Mus musculus; test: Compound was evaluated for %T/C in L1210 leukemia implanted BDF1 mice on day 0 after ip administration of 80 mg/kg/day on day 1; assay type: functional; conditions: route intraperitoneal
# [39] = system: Mus musculus; test: Compound was evaluated for number of survivors in P388 leukemia implanted BDF1 mice on day 0 after ip administration of 25 mg/kg/day on day 60 out of 6 mice; assay type: functional; conditions: route intraperitoneal
# [40] = system: Mus musculus; test: Compound was evaluated for number of survivors in P388 leukemia implanted BDF1 mice on day 0 after ip administration of 50 mg/kg/day on day 60 out of 5 mice; assay type: functional; conditions: route intraperitoneal
compound,measurement,setting,value
NC(=O)c1ncn2c(=O)n(CCCl)nnc12 [MITOZOLOMIDE],Mortality,[1],0
same,T/C,[2],184%
same,Mortality,[3],0
same,T/C,[4],387%
same,T/C,[5],198%
same,T/C,[6],112%
same,Survivors,[7],5
same,Survivors,[8],0
same,T/C,[9],74%
same,T/C,[10],139%
same,Mortality,[11],0
same,Survivors,[12],5
same,Mortality,[13],0
same,half-life,[14],1.17 h
same,Survivors,[15],0
same,T/C,[16],>600%
same,Mortality,[17],0
same,T/C,[18],111%
same,half-life,[19],1.2 h
same,Survivors,[20],5
same,Mortality,[21],0
same,Survivors,[22],5
same,T/C,[23],277%
same,T/C,[24],>740%
same,Survivors,[25],0
same,T/C,[26],>745%
same,Survivors,[27],6
same,Mortality,[28],0
same,T/C,[29],131%
same,Survivors,[30],0
same,Mortality,[31],0
same,Survivors,[32],1
same,Mortality,[33],0
same,T/C,[34],>577%
same,Mortality,[35],0
same,Mortality,[36],0
same,Mortality,[37],1
same,T/C,[38],177%
same,Survivors,[39],4
same,Survivors,[40],0

# Reference: ChEMBL document CHEMBL1122784, “Antitumor imidazotetrazines. 1. Synthesis and chemistry of 8-carbamoyl-3-(2-chloroethyl)imidazo[5,1-d]-1,2,3,5-tetrazin-4(3 H)-one , a novel broad-spectrum antitumor agent” (J Med Chem, 1984)
